Source: PMC6100082, “Pyridine-Ureas as Potential Anticancer Agents: Synthesis and In Vitro Biological Evaluation” (Molecules : A Journal of Synthetic Chemistry and Natural …, 2018)
Like-named read-outs stand apart in the source and are kept apart here.

Columns and labels:
[1] = test system: BT-549; assay: NCI one-dose SRB assay (Breast Cancer); format: cell-based, human
Procedure: (§1) The structures of all the newly prepared pyridine-ureas 8a–n were submitted to the National Cancer Institute (NCI) Developmental Therapeutic Program. Eight compounds 8b, 8d, 8e, 8i, 8j and 8l–n were selected to be examined for their in vitro growth inhibitory activity. The anticancer assays were carried out according to the protocol of the Drug Evaluation Branch, NCI, Bethesda. The selected pyridine-ureas were tested at one dose primary anticancer assay against a panel of approximately 58 cancer lines (concentration 10^−5 M). The tested human cancer cell lines emerged from nine different cancer subtypes: leukemia, colon, melanoma, ovarian, lung, CNS, renal, breast and prostate cancers. The sulforhodamine B (SRB) protein assay was adopted to estimate the cell viability and growth. The results were reported as mean-graph of the percentage growth of the treated cells, and presented as percentage growth inhibition (GI%) caused by the test compounds (Table 2).
(§2) The anticancer assays were performed in accordance with the protocol of the Drug Evaluation Branch, NCI, Bethesda. A 48 h drug exposure protocol was used and sulforhodamine B (SRB) protein assay was applied to estimate the cell viability and growth, as reported earlier.

[2] = test system: MCF7; assay: NCI one-dose SRB assay (Breast Cancer); format: cell-based, human
Procedure: as §1, §2

[3] = test system: T-47D; assay: NCI one-dose SRB assay (Breast Cancer); format: cell-based, human
Procedure: as §1, §2

[4] = test system: MDA-MB-231; assay: NCI one-dose SRB assay (Breast Cancer); format: cell-based, human
Procedure: as §1, §2

[5] = test system: HS 578T; assay: NCI one-dose SRB assay (Breast Cancer); format: cell-based, human
Procedure: as §1, §2

[6] = test system: MDA-MB-468; assay: NCI one-dose SRB assay (Breast Cancer); format: cell-based, human
Procedure: as §1, §2

[7] = test system: KM12; assay: NCI one-dose SRB assay (Colon Cancer); format: cell-based, human
Procedure: as §1, §2

[8] = test system: HCC-2998; assay: NCI one-dose SRB assay (Colon Cancer); format: cell-based, human
Procedure: as §1, §2

[9] = test system: COLO 205; assay: NCI one-dose SRB assay (Colon Cancer); format: cell-based, human
Procedure: as §1, §2

[10] = test system: HT29; assay: NCI one-dose SRB assay (Colon Cancer); format: cell-based, human
Procedure: as §1, §2

[11] = test system: HCT-116; assay: NCI one-dose SRB assay (Colon Cancer); format: cell-based, human
Procedure: as §1, §2

[12] = test system: SW-620; assay: NCI one-dose SRB assay (Colon Cancer); format: cell-based, human
Procedure: as §1, §2

[13] = test system: HCT-15; assay: NCI one-dose SRB assay (Colon Cancer); format: cell-based, human
Procedure: as §1, §2

[14] = test system: UACC-62; assay: NCI one-dose SRB assay (Melanoma); format: cell-based, human
Procedure: as §1, §2

[15] = test system: UACC-257; assay: NCI one-dose SRB assay (Melanoma); format: cell-based, human
Procedure: as §1, §2

[16] = test system: SK-MEL-28; assay: NCI one-dose SRB assay (Melanoma); format: cell-based, human
Procedure: as §1, §2

[17] = test system: LOX IMVI; assay: NCI one-dose SRB assay (Melanoma); format: cell-based, human
Procedure: as §1, §2

[18] = test system: SK-MEL-2; assay: NCI one-dose SRB assay (Melanoma); format: cell-based, human
Procedure: as §1, §2

[19] = test system: MDA-MB-435; assay: NCI one-dose SRB assay (Melanoma); format: cell-based, human
Procedure: as §1, §2

[20] = test system: M14; assay: NCI one-dose SRB assay (Melanoma); format: cell-based, human
Procedure: as §1, §2

[21] = test system: MALME-3M; assay: NCI one-dose SRB assay (Melanoma); format: cell-based, human
Procedure: as §1, §2

[22] = test system: SK-MEL-5; assay: NCI one-dose SRB assay (Melanoma); format: cell-based, human
Procedure: as §1, §2

[23] = test system: breast cancer MCF-7 cell line; assay: In vitro anti-proliferative activity, MTT assay; format: cell-based, human; conditions: Homo sapiens, MCF-7, MTT
Procedure: The in vitro anti-proliferative activity of the newly prepared pyridine-ureas 8a–n was examined against breast cancer MCF-7 cell line. The assay was carried out, as triplicates, utilizing the 3-(4,5-dimethylthiazol-2-yl)-2,5-diphenyltetrazolium bromide (MTT) colorimetric assay as described by T. Mosmann. Doxorubicin and Sorafenib were included in this assay as a reference drug.
MCF-7 (human breast cancer cell line) and WI-38 (human lung fibroblast cell line), were obtained from American Type Culture Collection (Manassas, VA, USA). The cells were propagated in DMEM and supplemented with 10% heat-inactivated FBS (Hyclone), 10 μg/mL of insulin (Manufacturer, Sigma, St. Louis, MO, USA), and 1% penicillin-streptomycin. MTT assay was utilized to examine the in vitro anti-proliferative activity of the newly prepared ureas following the reported procedures. […] The data presented are the mean of at least three separate experiments.

[24] = Homo sapiens, 10 μM, read-out: Percentage growth inhibition (GI%)

COc1ccc(-c2ccc(NC(=O)Nc3ccc(Cl)cc3)c(C)n2)cc1 [Compound 8d, 1-(4-Chlorophenyl)-3-(6-(4-methoxyphenyl)-2-methylpyridin-3-yl) Urea]
Growth Percent ([1]; BT-549, 1.00E-5 Molar): 96.71%
inhibition at 10 µM ([1]; Homo sapiens, BT-549, 10 μM, read-out: Percentage growth inhibition (GI%)): < 10%
inhibition at 10 µM ([2]; Homo sapiens, MCF7, 10 μM, read-out: Percentage growth inhibition (GI%)): 26%
Growth Percent ([2]; MCF7, 1.00E-5 Molar): 74.74%
Growth Percent ([3]; 1.00E-5 Molar): 72.90%
inhibition at 10 µM ([3]; Homo sapiens, T47D, 10 μM, read-out: Percentage growth inhibition (GI%)): 28%
inhibition at 10 µM ([4]; Homo sapiens, MDA-MB-231, 10 μM, read-out: Percentage growth inhibition (GI%)): < 10%
Growth Percent ([4]; MDA-MB-231/ATCC, 1.00E-5 Molar): 97.34%
Growth Percent ([5]; 1.00E-5 Molar): 98.36%
inhibition at 10 µM [5, 24]: < 10%
inhibition at 10 µM ([6]; Homo sapiens, MDA-MB-468, 10 μM, read-out: Percentage growth inhibition (GI%)): < 10%
Growth Percent ([6]; MDA-MB-468, 1.00E-5 Molar): 91.54%
inhibition at 10 µM ([7]; Homo sapiens, KM12, 10 μM, read-out: Percentage growth inhibition (GI%)): < 10%
Growth Percent ([7]; KM12, 1.00E-5 Molar): 93.09%
Growth Percent ([8]; HCC-2998, 1.00E-5 Molar): 104.24%
inhibition at 10 µM ([8]; Homo sapiens, HCC-2998, 10 μM, read-out: Percentage growth inhibition (GI%)): < 10%
Growth Percent ([9]; COLO 205, 1.00E-5 Molar): 102.39%
inhibition at 10 µM ([9]; Homo sapiens, COLO 205, 10 μM, read-out: Percentage growth inhibition (GI%)): < 10%
Growth Percent ([10]; HT29, 1.00E-5 Molar): 85.13%
inhibition at 10 µM ([10]; Homo sapiens, HT-29, HT29, 10 μM, read-out: Percentage growth inhibition (GI%)): 15%
Growth Percent ([11]; HCT-116, 1.00E-5 Molar): 76.10%
inhibition at 10 µM ([11]; Homo sapiens, HCT-116, 10 μM, read-out: Percentage growth inhibition (GI%)): 24%
inhibition at 10 µM ([12]; Homo sapiens, SW-620, 10 μM, read-out: Percentage growth inhibition (GI%)): 23%
Growth Percent ([12]; SW-620, 1.00E-5 Molar): 77.06%
Growth Percent ([13]; HCT-15, 1.00E-5 Molar): 85.74%
inhibition at 10 µM ([13]; Homo sapiens, HCT-15, 10 μM, read-out: Percentage growth inhibition (GI%)): 15%
inhibition at 10 µM ([14]; Homo sapiens, UACC-62, 10 μM, read-out: Percentage growth inhibition (GI%)): 29%
Growth Percent ([14]; UACC-62, 1.00E-5 Molar): 71.19%
inhibition at 10 µM ([15]; Homo sapiens, UACC-257, 10 μM, read-out: Percentage growth inhibition (GI%)): 22%
Growth Percent ([15]; UACC-257, 1.00E-5 Molar): 78.79%
inhibition at 10 µM ([16]; Homo sapiens, SK-MEL-28, 10 μM, read-out: Percentage growth inhibition (GI%)): 11%
Growth Percent ([16]; SK-MEL-28, 1.00E-5 Molar): 89.84%
Growth Percent ([17]; 1.00E-5 Molar): 85.30%
inhibition at 10 µM [17, 24]: 15%
inhibition at 10 µM ([18]; Homo sapiens, SK-MEL-2, 10 μM, read-out: Percentage growth inhibition (GI%)): < 10%
Growth Percent ([18]; SK-MEL-2, 1.00E-5 Molar): 104.03%
inhibition at 10 µM ([19]; Homo sapiens, MDA-MB-435, 10 μM, read-out: Percentage growth inhibition (GI%)): 12%
Growth Percent ([19]; MDA-MB-435, 1.00E-5 Molar): 88.00%
inhibition at 10 µM ([20]; Homo sapiens, M14, 10 μM, read-out: Percentage growth inhibition (GI%)): 14%
Growth Percent ([20]; M14, 1.00E-5 Molar): 86.55%
Growth Percent ([21]; 1.00E-5 Molar): 104.47%
inhibition at 10 µM [21, 24]: < 10%
inhibition at 10 µM ([22]; Homo sapiens, SK-MEL-5, 10 μM, read-out: Percentage growth inhibition (GI%)): 13%
Growth Percent ([22]; SK-MEL-5, 1.00E-5 Molar): 87.05%
IC50 ([23]; MCF7, 48 h, 48 h of incubation, read-out: IC50 48 h): 7.1 ± 0.38 µM
IC50 ([23]; MCF7, 72 h, 72 h of incubation, read-out: IC50 72 h): 5.14 ± 0.46 µM
melting point: 231 to 232 °C
